Source: ChEMBL document CHEMBL4334476 (J Med Chem, 2019)

Experiments:
Homo sapiens = organism: Homo sapiens; experiment: Selectivity ratio of IC50 for human recombinant arginase 2 H331 to I354 deletion mutant expressed in Escherichia coli BL21 (DE3) to IC50 for human recombinant arginase 1 expressed in Escherichia coli BL21 (DE3)
Arginase-1 = target: T1, Arginase-1 (Homo sapiens, UniProt P05089); experiment: Inhibition of human recombinant arginase 1 expressed in Escherichia coli BL21 (DE3) assessed as reduction in urea production using L-arginine as substrate in presence of MnSO4 incubated for 60 mins by o-phthaldialdehyde/N-(1-naphthyl)ethylene-diamine dihydrochloride reagent based colorimetric assay
T1 sequence (P05089 whole entry): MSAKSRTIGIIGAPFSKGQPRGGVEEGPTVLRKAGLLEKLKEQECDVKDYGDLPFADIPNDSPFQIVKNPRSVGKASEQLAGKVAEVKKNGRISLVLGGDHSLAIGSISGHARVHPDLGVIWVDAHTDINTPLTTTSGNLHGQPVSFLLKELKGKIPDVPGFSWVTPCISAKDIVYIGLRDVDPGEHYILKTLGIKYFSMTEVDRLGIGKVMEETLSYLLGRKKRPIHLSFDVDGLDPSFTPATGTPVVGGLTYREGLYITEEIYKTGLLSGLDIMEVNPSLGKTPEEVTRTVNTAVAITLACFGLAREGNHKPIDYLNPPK

[1] = Inhibition of human recombinant arginase 2 H331 to I354 deletion mutant expressed in Escherichia coli BL21 (DE3) assessed as reduction in urea production using L-arginine as substrate in presence of MnSO4 incubated for 60 mins by colorimetric assay
[2] = target: T2, Arginase-1 (Homo sapiens) (UniProt P05089); experiment: Potency index, ratio of ABH IC50 to test compound IC50 for human recombinant arginase 1 expressed in Escherichia coli BL21 (DE3)
T2 sequence (whole entry): T1 sequence (P05089 whole entry)

Cn1ccnc1CN1C[C@H](CCCB(O)O)[C@](N)(C(=O)O)C1 gave a Ratio IC50 (Homo sapiens) of 3 to 5, an IC50 (Arginase-1; read-out: IC50) of 100 nM and an IC50 ([1]; read-out: IC50) of 330 nM.

C[C@@H](N)CN1C[C@H](CCCB(O)O)[C@](N)(C(=O)O)C1 gave a Ratio IC50 (Homo sapiens) of 3 to 5, an IC50 (Arginase-1; read-out: IC50) of 16 nM and an IC50 ([1]; read-out: IC50) of 37 nM.

N[C@@]1(C(=O)O)CN(Cc2cccc(F)n2)C[C@@H]1CCCB(O)O showed a Ratio IC50 (Homo sapiens) of 3 to 5, an IC50 (Arginase-1; read-out: IC50) of 670 nM and an IC50 ([1]; read-out: IC50) of 2160 nM.

Compound CC(C)CN1C[C@H](CCCB(O)O)[C@](N)(C(=O)O)C1 has a Ratio IC50 (Homo sapiens) of 3 to 5, an IC50 (Arginase-1; read-out: IC50) of 390 nM and an IC50 ([1]; read-out: IC50) of 1610 nM.

N[C@@]1(C(=O)O)CN(Cc2ccncc2)C[C@@H]1CCCB(O)O showed a Ratio IC50 (Homo sapiens) of 3 to 5, an IC50 (Arginase-1; read-out: IC50) of 600 nM and an IC50 ([1]; read-out: IC50) of 1860 nM.

In the case of N[C@@H](CN1C[C@H](CCCB(O)O)[C@](N)(C(=O)O)C1)c1ccccc1, the Ratio IC50 (Homo sapiens) is reported as 3 to 5, the IC50 (Arginase-1; read-out: IC50) is reported as 18 nM and the IC50 ([1]; read-out: IC50) is reported as 62 nM.

For N[C@@]1(C(=O)O)CN(Cc2cccnc2)C[C@@H]1CCCB(O)O, the Ratio IC50 (Homo sapiens) was 3 to 5, the IC50 (Arginase-1; read-out: IC50) was 470 nM and the IC50 ([1]; read-out: IC50) was 1370 nM.

N[C@@]1(C(=O)O)CN(C[C@H]2CCCCN2)C[C@@H]1CCCB(O)O showed a Ratio IC50 (Homo sapiens) of 3 to 5, an IC50 (Arginase-1; read-out: IC50) of 2.6 nM and an IC50 ([1]; read-out: IC50) of 14 nM.

With Cc1[nH]ncc1CN1C[C@H](CCCB(O)O)[C@](N)(C(=O)O)C1 the Ratio IC50 (Homo sapiens) was 3 to 5, the IC50 (Arginase-1; read-out: IC50) was 400 nM and the IC50 ([1]; read-out: IC50) was 2180 nM.

Compound N[C@@]1(C(=O)O)CNC[C@@H]1CCCB(O)O has a Ratio IC50 (Homo sapiens) of 3 to 5, an IC50 (Arginase-1; read-out: IC50) of 110 nM and an IC50 ([1]; read-out: IC50) of 440 nM.

In the case of N=C(NO)NCC[C@H](N)C(=O)O [NOR-NOHA], the IC50 ([1]; read-out: IC50) is reported as 1260 nM.

N[C@@H](Cc1ccccc1)CN1C[C@H](CCCB(O)O)[C@](N)(C(=O)O)C1 showed a Ratio IC50 (Homo sapiens) of 3 to 5, an IC50 (Arginase-1; read-out: IC50) of 1.3 nM and an IC50 ([1]; read-out: IC50) of 8.1 nM. It also gave a Ratio IC50 [2] of 1190.

C[C@H](N)CN1C[C@H](CCCB(O)O)[C@](N)(C(=O)O)C1 gave a Ratio IC50 (Homo sapiens) of 2 to 5, an IC50 (Arginase-1; read-out: IC50) of 7.7 nM and an IC50 ([1]; read-out: IC50) of 16 nM.

In the case of N[C@@]1(C(=O)O)CCC[C@@H]1CCCB(O)O, the Ratio IC50 (Homo sapiens) is reported as 3 to 5, the IC50 (Arginase-1; read-out: IC50) is reported as 210 nM and the IC50 ([1]; read-out: IC50) is reported as 630 nM.

Work on Cc1nn(C)c(C)c1CN1C[C@H](CCCB(O)O)[C@](N)(C(=O)O)C1 yielded a Ratio IC50 (Homo sapiens) of 3 to 5, an IC50 (Arginase-1; read-out: IC50) of 340 nM and an IC50 ([1]; read-out: IC50) of 2230 nM.

For N[C@]1(C(=O)O)CCC[C@H]1CCCB(O)O, the IC50 (Arginase-1) was “Not Active” and the IC50 [1] was “Not Active”.

N[C@@]1(C(=O)O)CN(Cc2ccccn2)C[C@@H]1CCCB(O)O gave a Ratio IC50 (Homo sapiens) of 3 to 5, an IC50 (Arginase-1; read-out: IC50) of 380 nM and an IC50 ([1]; read-out: IC50) of 1270 nM.

N[C@@]1(C(=O)O)CN(C[C@H]2COCCN2)C[C@@H]1CCCB(O)O showed a Ratio IC50 (Homo sapiens) of 3 to 5, an IC50 (Arginase-1; read-out: IC50) of 19 nM and an IC50 ([1]; read-out: IC50) of 65 nM.

N[C@@]1(C(=O)O)CN(Cc2cncs2)C[C@@H]1CCCB(O)O showed a Ratio IC50 (Homo sapiens) of 3 to 5, an IC50 (Arginase-1; read-out: IC50) of 360 nM and an IC50 ([1]; read-out: IC50) of 850 nM.

N[C@@]1(C(=O)O)CN(C[C@H]2CCCN2)C[C@@H]1CCCB(O)O showed a Ratio IC50 (Homo sapiens) of 3 to 5, an IC50 (Arginase-1; read-out: IC50) of 10 nM and an IC50 ([1]; read-out: IC50) of 37 nM.

Work on NC1(C(=O)O)CCCC1CCCB(O)O (racemic; 8) [listing 1 of 2 here] yielded a Ratio IC50 (Homo sapiens) of 3 to 5.

Work on N[C@@]1(C(=O)O)CN(C[C@@H]2COCCN2)C[C@@H]1CCCB(O)O yielded a Ratio IC50 (Homo sapiens) of 3 to 5, an IC50 (Arginase-1; read-out: IC50) of 10 nM and an IC50 ([1]; read-out: IC50) of 27 nM.

Work on N[C@@]1(C(=O)O)CN(C[C@@H]2CCCCN2)C[C@@H]1CCCB(O)O yielded a Ratio IC50 (Homo sapiens) of 3 to 5, an IC50 (Arginase-1; read-out: IC50) of 30 nM and an IC50 ([1]; read-out: IC50) of 95 nM.

In the case of NC1(C(=O)O)CCCC1CCCB(O)O (racemic; 9), the IC50 (Arginase-1; read-out: IC50) is reported as 48000 nM and the IC50 ([1]; read-out: IC50) is reported as 79200 nM.

Work on N[C@H](Cc1ccccc1)CN1C[C@H](CCCB(O)O)[C@](N)(C(=O)O)C1 yielded a Ratio IC50 (Homo sapiens) of 3 to 5, an IC50 (Arginase-1; read-out: IC50) of 10 nM and an IC50 ([1]; read-out: IC50) of 27 nM.

Compound NC1(C(=O)O)CCCC1CCCB(O)O (racemic; 8) [listing 2 of 2 here] has an IC50 (Arginase-1; read-out: IC50) of 380 nM and an IC50 ([1]; read-out: IC50) of 1280 nM.

In the case of N[C@H](CN1C[C@H](CCCB(O)O)[C@](N)(C(=O)O)C1)c1ccccc1, the Ratio IC50 (Homo sapiens) is reported as 3 to 5, the IC50 (Arginase-1; read-out: IC50) is reported as 2.5 nM and the IC50 ([1]; read-out: IC50) is reported as 9.5 nM.

For N[C@@]1(C(=O)O)CN(C[C@@H]2CCCN2)C[C@@H]1CCCB(O)O, the Ratio IC50 (Homo sapiens) was 3 to 5, the IC50 (Arginase-1; read-out: IC50) was 11 nM and the IC50 ([1]; read-out: IC50) was 47 nM.

In the case of N[C@@]1(C(=O)O)CN(Cc2ccccc2)C[C@@H]1CCCB(O)O, the Ratio IC50 (Homo sapiens) is reported as 3 to 5, the IC50 (Arginase-1; read-out: IC50) is reported as 300 nM and the IC50 ([1]; read-out: IC50) is reported as 1540 nM.

With N[C@@H](CCCCB(O)O)C(=O)O the Ratio IC50 (Homo sapiens) was 3 to 5, the IC50 (Arginase-1; read-out: IC50) was 1550 nM and the IC50 ([1]; read-out: IC50) was 2550 nM.
